From patent US9393271B2, “GHRH agonists for islet cell transplantation and function and the treatment of diabetes” (UNIVERSITY OF MIAMI, priority 2012, dated 2016)
Non-standard residues stand in square brackets, D forms with d. Residues, ends and D or L forms follow the SMILES beside them. No end group written: not given here. *: point of attachment. Phe(F5) = N[C@@H](Cc1c(F)c(F)c(F)c(F)c1F)C(=O)O; Desaminotyrosyl = O=C(CCc1ccc(O)cc1)*; NMeY = CN[C@@H](Cc1ccc(O)cc1)C(=O)O; Agmatine = N=C(N)NCCCCN*; NMeA = CN[C@@H](C)C(=O)O; Nle = CCCC[C@H](N)C(=O)O; Orn = NCCC[C@H](N)C(=O)O; Abu = CC[C@H](N)C(=O)O; Aoc = NCCCCCCCC(=O)O; GABA = NCCCC(=O)O

Assays:
[1] = target: T1, GHRH receptor (human pituitary membrane homogenates) (Homo sapiens, UniProt Q02643); assay: GHRH receptor binding, ligand competition with 125I-labeled JV-1-42 (Table 7); parameters: Normal human pituitaries were purchased from the National Hormone and Peptide Program; tissue National Hormone and Peptide Program (A. F. Parlow, Harbor-UCLA Medical Center, Torrance, Calif.); host or cells: normal human pituitary, membrane fraction / homogenate; conditions: JI-38 = 1
T1 sequence (Q02643 23-423): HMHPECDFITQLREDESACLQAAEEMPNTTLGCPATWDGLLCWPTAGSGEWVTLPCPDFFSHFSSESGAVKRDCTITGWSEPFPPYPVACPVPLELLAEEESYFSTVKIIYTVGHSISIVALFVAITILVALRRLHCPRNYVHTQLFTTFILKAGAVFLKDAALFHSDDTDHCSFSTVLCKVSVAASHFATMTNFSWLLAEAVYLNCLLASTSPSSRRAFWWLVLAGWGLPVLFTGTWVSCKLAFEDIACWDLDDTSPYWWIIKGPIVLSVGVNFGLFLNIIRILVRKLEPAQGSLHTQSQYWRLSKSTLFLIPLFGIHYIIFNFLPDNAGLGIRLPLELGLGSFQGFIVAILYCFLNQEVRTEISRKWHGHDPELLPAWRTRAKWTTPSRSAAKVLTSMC

[2] = target: T2, GHRH receptor in human pituitary membrane homogenates (human, UniProt Q02643); assay: ligand competition, 125I-JV-1-42 displaced, human pituitary membranes
T2 sequence: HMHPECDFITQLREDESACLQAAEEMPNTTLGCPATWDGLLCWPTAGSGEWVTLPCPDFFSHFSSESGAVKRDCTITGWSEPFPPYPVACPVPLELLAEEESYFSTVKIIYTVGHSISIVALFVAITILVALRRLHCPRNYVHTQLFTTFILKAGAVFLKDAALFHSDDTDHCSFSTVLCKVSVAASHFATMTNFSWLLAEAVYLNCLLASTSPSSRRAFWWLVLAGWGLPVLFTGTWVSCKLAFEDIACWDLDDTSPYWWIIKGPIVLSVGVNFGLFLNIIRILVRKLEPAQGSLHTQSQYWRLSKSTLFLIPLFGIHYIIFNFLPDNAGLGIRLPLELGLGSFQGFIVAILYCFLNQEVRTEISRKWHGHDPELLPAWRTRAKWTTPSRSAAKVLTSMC

Molecule	Relative affinitiy (Binding potency) vs JI-38 [1]	IC50 [2] [nM]	relative affinity (binding potency) vs JI-38 [2] [JI-38 = 1]
CCCC[C@H](NC(=O)[C@@H](NC(=O)[C@H](CC(=O)O)NC(=O)[C@H](CCC(N)=O)NC(=O)[C@H](CC(C)C)NC(=O)[C@H](CC(C)C)NC(=O)[C@H](CCCN)NC(=O)[C@H](CCCNC(=N)N)NC(=O)[C@H](C)NC(=O)[C@H](CO)NC(=O)[C@H](CC(C)C)NC(=O)[C@H](CCC(N)=O)NC(=O)[C@H](CC)NC(=O)[C@H](CC(C)C)NC(=O)[C@@H](NC(=O)[C@H](CCCN)NC(=O)[C@H](CCCNC(=N)N)NC(=O)[C@H](Cc1ccc(O)cc1)NC(=O)[C@H](CO)NC(=O)[C@H](CCC(N)=O)NC(=O)[C@@H](NC(=O)[C@H](Cc1ccccc1)NC(=O)[C@@H](NC(=O)[C@H](C)NC(=O)[C@H](CC(=O)O)NC(=O)[C@@H](C)NC(=O)[C@H](Cc1ccc(O)cc1)N(C)C(C)=O)[C@@H](C)CC)[C@@H](C)O)C(C)C)[C@@H](C)CC)C(=O)N[C@@H](CC(=O)O)C(=O)NCCCCNC(=N)N [Peptide P-20351, [Ac—N—Me-Tyr^1, D-Ala^2, Gln^8, Orn^12, Abu^15, Orn^21, Nle^27, Asp^28, Agm^29]hGHRH(1-29)] (Ac-[NMeY][dA]DAIFTQSYR[Orn]VL[Abu]QLSAR[Orn]LLQDI[Nle]D-Agmatine)	1.26	–	–
CCCC[C@H](NC(=O)[C@@H](NC(=O)[C@H](CC(=O)O)NC(=O)[C@H](CCC(N)=O)NC(=O)[C@H](CC(C)C)NC(=O)[C@H](CC(C)C)NC(=O)[C@H](CCCN)NC(=O)[C@H](CCCNC(=N)N)NC(=O)[C@H](C)NC(=O)[C@H](CO)NC(=O)[C@H](CC(C)C)NC(=O)[C@H](CCC(N)=O)NC(=O)[C@H](CC)NC(=O)[C@H](CC(C)C)NC(=O)[C@@H](NC(=O)[C@H](CCCN)NC(=O)[C@H](CCCNC(=N)N)NC(=O)[C@H](Cc1ccc(O)cc1)NC(=O)[C@H](CO)NC(=O)[C@H](C)N(C)C(=O)[C@@H](NC(=O)[C@H](Cc1ccccc1)NC(=O)[C@@H](NC(=O)[C@H](C)NC(=O)[C@H](CC(=O)O)NC(=O)[C@@H](C)NC(=O)CCc1ccc(O)cc1)[C@@H](C)CC)[C@@H](C)O)C(C)C)[C@@H](C)CC)C(=O)N[C@@H](CC(=O)O)C(=O)NCCCCNC(=N)N [Peptide P-20357, [Dat^1, D-Ala^2, N—Me-Ala^8, Orn^12, Abu^15, Orn^21, Nle^27, Asp^28, Agm^29]hGHRH(1-29)] (Desaminotyrosyl-[dA]DAIFT[NMeA]SYR[Orn]VL[Abu]QLSAR[Orn]LLQDI[Nle]D-Agmatine)	5.06	–	–
CCCC[C@H](NC(=O)[C@@H](NC(=O)[C@H](CC(=O)O)NC(=O)[C@H](CCC(N)=O)NC(=O)[C@H](CC(C)C)NC(=O)[C@H](CC(C)C)NC(=O)[C@H](CCCN)NC(=O)[C@H](CCCNC(=N)N)NC(=O)[C@H](C)NC(=O)[C@H](CO)NC(=O)[C@H](CC(C)C)NC(=O)[C@H](CCC(N)=O)NC(=O)[C@H](CC)NC(=O)[C@H](CC(C)C)NC(=O)[C@@H](NC(=O)[C@H](CCCN)NC(=O)[C@H](CCCNC(=N)N)NC(=O)[C@H](Cc1ccc(O)cc1)NC(=O)[C@H](CO)NC(=O)[C@H](CC(N)=O)NC(=O)[C@@H](NC(=O)[C@H](Cc1c(F)c(F)c(F)c(F)c1F)NC(=O)[C@@H](NC(=O)[C@H](C)NC(=O)[C@H](CC(=O)O)NC(=O)[C@@H](C)NC(=O)[C@H](Cc1ccc(O)cc1)NC)[C@@H](C)CC)[C@@H](C)O)C(C)C)[C@@H](C)CC)C(=O)N[C@@H](CC(=O)O)C(=O)NCCCCNC(=N)N [Peptide P-20359, [N—Me-Tyr^1, D-Ala^2, Fpa5^6, Orn^12, Abu^15, Orn^21, Nle^27, Asp^28, Agm^29]hGHRH(1-29)] (H-[NMeY][dA]DAI[Phe(F5)]TNSYR[Orn]VL[Abu]QLSAR[Orn]LLQDI[Nle]D-Agmatine)	1.43	–	–
CCCC[C@H](NC(=O)[C@@H](NC(=O)[C@H](CC(=O)O)NC(=O)[C@H](CCC(N)=O)NC(=O)[C@H](CC(C)C)NC(=O)[C@H](CC(C)C)NC(=O)[C@H](CCCN)NC(=O)[C@H](CCCNC(=N)N)NC(=O)[C@H](C)NC(=O)[C@H](CO)NC(=O)[C@H](CC(C)C)NC(=O)[C@H](CCC(N)=O)NC(=O)[C@H](CC)NC(=O)[C@H](CC(C)C)NC(=O)[C@@H](NC(=O)[C@H](CCCN)NC(=O)[C@H](CCCNC(=N)N)NC(=O)[C@H](Cc1ccc(O)cc1)NC(=O)[C@H](CO)NC(=O)[C@H](CCC(N)=O)NC(=O)[C@@H](NC(=O)[C@H](Cc1ccccc1)NC(=O)[C@@H](NC(=O)[C@H](C)NC(=O)[C@H](CC(=O)O)NC(=O)[C@@H](C)NC(=O)[C@H](Cc1ccc(O)cc1)NC)[C@@H](C)CC)[C@@H](C)O)C(C)C)[C@@H](C)CC)C(=O)N[C@@H](CC(=O)O)C(=O)NCCCCNC(=N)N [Peptide P-20361, [N—Me-Tyr^1, D-Ala^2, Gln^8, Orn^12, Abu^15, Orn^21, Nle^27, Asp^28, Agm^29] hGHRH(1-29)] (H-[NMeY][dA]DAIFTQSYR[Orn]VL[Abu]QLSAR[Orn]LLQDI[Nle]D-Agmatine)	5.30	–	–
CCCC[C@H](NC(=O)[C@@H](NC(=O)[C@H](CC(=O)O)NC(=O)[C@H](CCC(N)=O)NC(=O)[C@H](CC(C)C)NC(=O)[C@H](CC(C)C)NC(=O)[C@H](CCCN)NC(=O)[C@H](CCCNC(=N)N)NC(=O)[C@H](C)NC(=O)[C@H](CO)NC(=O)[C@H](CC(C)C)NC(=O)[C@H](CCC(N)=O)NC(=O)[C@H](CC)NC(=O)[C@H](CC(C)C)NC(=O)[C@@H](NC(=O)[C@H](CCCN)NC(=O)[C@H](CCCNC(=N)N)NC(=O)[C@H](Cc1ccc(O)cc1)NC(=O)[C@H](CO)NC(=O)[C@H](CC(N)=O)NC(=O)[C@@H](NC(=O)[C@H](Cc1ccccc1)NC(=O)[C@@H](NC(=O)[C@H](C)NC(=O)[C@H](CC(=O)O)NC(=O)[C@@H](C)NC(=O)CCc1ccc(O)cc1)[C@@H](C)CC)[C@@H](C)O)C(C)C)[C@@H](C)CC)C(=O)N[C@@H](CC(=O)O)C(=O)N[C@@H](CCCNC(=N)N)C(=O)NCCCCCCCC(N)=O [Peptide P-21300, [Dat^1, D-Ala^2, Orn^12, Abu^15, Orn^21, Nle^27, Asp^28, Amc^30]hGHRH(1-30)NH2] (Desaminotyrosyl-[dA]DAIFTNSYR[Orn]VL[Abu]QLSAR[Orn]LLQDI[Nle]DR[Aoc]-NH2)	1.20	–	–
CCCC[C@H](NC(=O)[C@@H](NC(=O)[C@H](CC(=O)O)NC(=O)[C@H](CCC(N)=O)NC(=O)[C@H](CC(C)C)NC(=O)[C@H](CC(C)C)NC(=O)[C@H](CCCN)NC(=O)[C@H](CCCNC(=N)N)NC(=O)[C@H](C)NC(=O)[C@H](CO)NC(=O)[C@H](CC(C)C)NC(=O)[C@H](CCC(N)=O)NC(=O)[C@H](CC)NC(=O)[C@H](CC(C)C)NC(=O)[C@@H](NC(=O)[C@H](CCCN)NC(=O)[C@H](CCCNC(=N)N)NC(=O)[C@H](Cc1ccc(O)cc1)NC(=O)[C@H](CO)NC(=O)[C@H](CC(N)=O)NC(=O)[C@@H](NC(=O)[C@H](Cc1ccccc1)NC(=O)[C@@H](NC(=O)[C@H](C)NC(=O)[C@H](CC(=O)O)NC(=O)[C@H](C)NC(=O)[C@H](Cc1ccc(O)cc1)NC)[C@@H](C)CC)[C@@H](C)O)C(C)C)[C@@H](C)CC)C(=O)N[C@@H](CC(=O)O)C(=O)N[C@@H](CCCNC(=N)N)C(=O)NCCCCCCCC(N)=O [Peptide P-21301, [N—Me-Tyr^1, Orn^12, Abu^15, Orn^21, Nle^27, Asp^28, Amc^30]hGHRH(1-30)NH2] (H-[NMeY]ADAIFTNSYR[Orn]VL[Abu]QLSAR[Orn]LLQDI[Nle]DR[Aoc]-NH2)	1.45	–	–
[NMeY]ADAIFTNSYR[Orn]VL[Abu]QLSAR[Orn]LLQDI[Nle]SR[GABA]-NHMe [[N-Me-Tyr1, Orn12, Abu15, Orn21, Nle27, Gab30]hGHRH(1-30)NH-CH3]	–	3.02	1.44
[Desaminotyrosyl]ADAIFTQSYH[Orn]VL[Abu]QLSAH[Orn]LLQDI[Nle]DR-NHMe (not fully specified) [[Dat1, Gln8, His11, Orn12, Abu15, His20, Orn21, Nle27, Asp28]hGHRH(1-29)NH-CH3]	–	2.45	1.78
[NMeY][Abu]DAIFTNSYR[Orn]VL[Abu]QLSAR[Orn]LLQDI[Nle]SR[GABA]-NH2 (N-terminus assumed; SMILES CCCC[C@H](NC(=O)[C@@H](NC(=O)[C@H](CC(=O)O)NC(=O)[C@H](CCC(N)=O)NC(=O)[C@H](CC(C)C)NC(=O)[C@H](CC(C)C)NC(=O)[C@H](CCCN)NC(=O)[C@H](CCCNC(=N)N)NC(=O)[C@H](C)NC(=O)[C@H](CO)NC(=O)[C@H](CC(C)C)NC(=O)[C@H](CCC(N)=O)NC(=O)[C@H](CC)NC(=O)[C@H](CC(C)C)NC(=O)[C@@H](NC(=O)[C@H](CCCN)NC(=O)[C@H](CCCNC(=N)N)NC(=O)[C@H](Cc1ccc(O)cc1)NC(=O)[C@H](CO)NC(=O)[C@H](CC(N)=O)NC(=O)[C@@H](NC(=O)[C@H](Cc1ccccc1)NC(=O)[C@@H](NC(=O)[C@H](C)NC(=O)[C@H](CC(=O)O)NC(=O)[C@H](CC)NC(=O)[C@H](Cc1ccc(O)cc1)NC)[C@@H](C)CC)[C@@H](C)O)C(C)C)[C@@H](C)CC)C(=O)N[C@@H](CO)C(=O)N[C@@H](CCCNC(=N)N)C(=O)NCCCC(N)=O) [[N-Me-Tyr1, Abu2, Orn12, Abu15, Orn21, Nle27, Gab30]hGHRH(1-30)NH2]	–	1.18	3.67
